Measured values from patent US10352938B2, “Macrocyclic HOPO chelators” (LUMIPHORE, INC., priority 2009, dated 2019).
Like-named read-outs stand apart in the source and are kept apart here. Marks after values point to notes of the source that are not given here. Blank lines part the entries; values can stand above or below the compound they belong to.

Assays:
[1] = UV/visible absorption spectroscopy of Eu(III) complexes in TRIS buffer; assay type: physicochemical; settings: for λ: absorption maximum
Description: Extinction Coefficient. A series of solutions of varied concentrations will be prepared from the solids based on mass and purity. The absorbance of each of these solutions at both 340 nm and at the appropriate acceptor wavelength will be measured and plotted according to Beer's Law (A=εcL where A is absorbance, ε is the extinction coefficient in M^−1 cm^−1, c is concentration, and L is path length in cm) with the fitted linear regression slope equal to […] on a plot of A as a function of C.
Each of the spectra have absorption maxima around 335-340 nm (FIG. 2). Those bands are composed of two electronic transitions; at higher energy, a purely π-π* transition and, at slightly lower energy (around ca. 320 nm), a π-π* transition with some n-π* character, as evidenced previously from TD-DFT calculations. […] This interaction gives maxima blue-shifting from 341 nm for [Eu(H(2,2)-1,2-HOPO)]^0 to 334 nm for [Eu(H(17O5,2)-1,2-HOPO)]^0 (as low as 332 nm for)[Eu(5LIN^Me-1,2HOPO)2]^0).

[2] = Luminescence quantum yield, emission and brightness in aqueous 0.1 M TRIS buffer; assay type: physicochemical; settings: for øTot: 0.1M TRIS buffer pH = 7.4; for Brightness: at maximum absorption, product of quantum yield and molar absorption coefficient, 0.1 M TRIS pH = 7.4; for overall quantum yield (in words): related to inner-sphere coordinated water
Experimental: Quantum Yield. Quantum yield will be measured using established methods. Fluorescence quantum yield Q are measured in diluted solution with an optical density lower than 0.1 using the following equation Qx/Qr=[Ar(λr)/Ax(λx)][nx^2/nr^2][Dx/Dr] were A is the absorbance at the excitation wavelength (λ), n the refractive index and D the integrated luminescence intensity. Subscripts “r” and “x” stand for reference and sample, respectively. References will be a quinine bisulfate in 1N sulfuric acid in aqueous solution (Qt=0.546)^1 and Ru(bpy)3 2C1 complexes in water solution (Qr=0.028)^2 for all complexes. A plot of integrated emission intensity (i.e. Dr) versus absorbance (i.e. Ar(λr)) yields a linear plot with a slope which can be equated to the reference quantum yield Qr. By analogy, for the unknown sample, a plot of integrated emission intensity (i.e. Dx) versus absorbance (i.e. Ax(λx)) yields a linear plot and Qx can then be evaluated. A minimum of at least two independent measurements will be averaged to derive a reliable value.

[3] = Stability titration (pEu) by competitive batch titration using DTPA; assay type: physicochemical; settings: for pEu: competitive batch titration using DTPA in 0.1M TRIS pH = 7.4 and 0.1M KCl; for pEu value as compared to DTPA / thermodynamic stability in aqueous solution: in words; for thermodynamic stability in aqueous solution: pH=7.4
Experimental: Stability Titrations. The general procedure used to determine the pEu values of ligands was adapted from an already described study using Gd and are similar to that already reported for other complexes. Different volumes of a standardized DTPA stock solution were added to solutions of constant ligand, metal, and electrolyte concentrations. Concentrations of complexed ligand in each solution were determined by subtracting the remaining luminescence intensity after addition of DTPA to the initial luminescence intensity at identical pH and those concentrations were used as references for the analysis. Stability of compounds towards mM concentrations of EDTA and divalent cations will be assessed by incubation of the proposed molecules at nM concentration at room temperature in aqueous solutions of test ions. Time Resolved Fluorescent signal will be assessed at the outset of experiment and monitored over a minimum of 24 hours to determine signal change.

[4] = Triplet excited state energy from phosphorescence of Gd complexes at 77K; assay type: physicochemical; settings: solid matrix (methanol/ethanol 1/4), using the Gd complexes
Experimental: Estimation of the energies of the ligand based triplet excited state were determined using the Gd(III) complexes. Gadolinium was chosen because it is a 4f^7 lanthanide cation having a similar 4f electronic configuration and size as the europium cation (4f^6), but lacking an accessible metal based low energy electronic excited state. At room temperature, only a broad weak emission centered between 380-400 nm can be seen for the Gd(III) complexes. […] At 77K, in solid matrix, an emission band at approx. 500 nm can be seen (FIG. 8). This emission, red-shifted compared to the singlet excited state, can be assigned to phosphorescence from the triplet excited state, lower in energy than the singlet excited state observed at room temperature. Selective time gated phosphorescence spectra (delay 0.1 ms) of the gadolinium complexes at 77K are depicted in FIG. 8.

[5] = Luminescence lifetimes (TRIS buffer, deuterated water, 77K) and inner sphere water number q; settings: for τ^D / τ (77K): first component; for q / q, second species: inner sphere water molecules; for q: first species
Experimental: Fluorescent decay signals can be acquired using an IBH DataStation Hub photon counting module and data analysis performed using the commercially available DAS 6 decay analysis software package from HORIBA Jobin Yvon IBH. Goodness of fit will be assessed by minimizing the reduced chi squared function, χ2, and a visual inspection of the weighted residuals. Each trace will use at least 10,000 points and the reported lifetime values result from at least three independent measurements.
In addition to the steady state emission spectra, the luminescence quantum yields and luminescence lifetimes of the Eu(III) complexes were also measured in aqueous solution with 0.1 M TRIS buffer pH=7.4 and in deuterated solution to estimate the number of inner sphere water molecule (i.e. q) using the improved Horrock's equations.
Luminescence lifetimes were also determined at 77K, in a solid matrix (Table 5), which have allowed us to determine whether back energy transfer between the donor triplet excited state and the acceptor manifold excited state of the lanthanide is present, or alternately whether quenching via low lying LMCT state occurs.

[6] = Calculation of Eu luminescence parameters (radiative lifetime, rate constants, efficiencies); assay type: physicochemical; settings: for metal centred efficiency: TRIS buffer; for η^Eu: efficiency of metal centred luminescence; for knr: non-radiative rate constant; for τrad: pure radiative luminescence lifetime, aqueous TRIS pH = 7.4; for kr: radiative rate constant; for η^sens: sensitization efficiency
Experimental: In this equation, the ηISC ηET term is termed the sensitization efficiency, ηsens (ηsens=ηISC ηET). All the luminescence parameters τR (the pure radiative luminescence lifetime), kR and knR (the radiative and non-radiative constant rate) can be deduced. These parameters were calculated for five of the octadentate complexes and the model complex that present only one species in solution at pH=7.4 and are reported in Table 6.

[7] = cited from earlier work; for λ: absorption maximum
[8] = cited from earlier work
[9] = cited from earlier work; remark: listed apart in the source
[10] = cited from earlier work; remark: listed apart in the source
[11] = extinction coefficient, in M-1·cm-1
[12] = solid matrix at 77K (methanol/ethanol 1/4)
[13] = aqueous TRIS pH = 7.4, complexes with only one species
[14] = TRIS buffer pH = 7.4, listed as [Eu(5LIN^Me-1,2HOPO)2]^0
[15] = listed as [Eu(5LIN^Me-1,2HOPO)2]^0
[16] = listed as [Eu(5LIN^Me-1,2-HOPO)2]

SMILES: O=C(NCCN(CCNC(=O)c1cccc(=O)n1O)CCOCCN(CCNC(=O)c1cccc(=O)n1O)CCNC(=O)c1cccc(=O)n1O)c1cccc(=O)n1O.[Eu] [Eu(H5-1)]
ε ([1]; TRIS buffer pH = 7.4): 15,900 M^−1 · cm^−1 | λ^maxabs ([1]; TRIS buffer pH = 7.4): 337 nm | λ [1]: 337 nm | ε [1, 11]: 15,900 | øTot [2]: 0.067 | ϕTot ([2]; aqueous quantum yield): 0.067 | Brightness [2]: 1065 M⁻¹ cm⁻¹ | overall quantum yield (in words) [2]: low quantum yields | pEu [3]: 19.2 | pEu value as compared to DTPA [3]: increased | T0-0 (triplet excited state energy) [4]: 22,000 cm^−1 | τ^D ([5]; deuterated solution): 825; μs | τ^D, second component ([5]; deuterated solution, second component): 462 μs | τ^D ([5]; deuterated water): 825 μs | τ^D, second component ([5]; deuterated water, second component): 438 μs | τ ([5]; first (longer) component): 651 μs | q ([5]; improved Horrock's equations): 0; | q [5]: 0 | q, second species [5]: 0.8 | q, second species ([5]; listed as [Eu(H(5O,2)-1,2HOPO)]^0): 1.1 | τ, second component ([5]; second (shorter) component): 304 μs | τ (77K) [5, 12]: 823; μs | τ (77K), second component ([5]; solid matrix at 77K (methanol/ethanol 1/4), second component): 608 μs

ε ([1]; TRIS buffer pH = 7.4): 15,000 M^−1 · cm^−1 | λ^maxabs ([1]; TRIS buffer pH = 7.4): 336 nm | λ^maxabs ([1]; TRIS buffer pH = 7.4, listed as [Eu(H(17O5,2)-1,2-HOPO)]^0): 334 nm | øTot [2]: 0.196 | øTot ([2]; listed as [Eu(H(17O5,2)-1,2-HOPO)]^0): 0.197 | ϕTot [2, 13]: 0.196 | Brightness [2]: 2940 M⁻¹ cm⁻¹ | thermodynamic stability in aqueous solution [3]: high thermodynamic stabilities | T0-0 (triplet excited state energy) [4]: 21,690 cm^−1 | metal centred efficiency [6]: around 50% | η^Eu [6]: 0.522 | knr [6]: 679 s⁻¹ | τrad [6]: 1348 μs | kr [6]: 742 s⁻¹ | τ ([5]; aqueous TRIS pH = 7.4): 704 μs | τ^D ([5]; deuterated solution): 962 μs | q ([5]; improved Horrock's equations): 0.1 | τ (77K) [5, 12]: 826 μs
SMILES: O=C(NCCN(CCNC(=O)c1cccc(=O)n1O)CCOCCOCCOCCOCCOCCN(CCNC(=O)c1cccc(=O)n1O)CCNC(=O)c1cccc(=O)n1O)c1cccc(=O)n1O.[Eu] [[Eu(H(17O5,2)-1,2HOPO)]^0]
η^sens [6]: 0.375

ε ([1]; TRIS buffer pH = 7.4): 15,350 M^−1 · cm^−1 | λ^maxabs ([1]; TRIS buffer pH = 7.4): 336 nm | λ [1]: 336 nm | ε [1, 11]: 15,350 | øTot [2]: 0.112 | ϕTot [2, 13]: 0.112 | ϕTot ([2]; aqueous quantum yield): 0.112 | Brightness [2]: 1720 M⁻¹ cm⁻¹ | overall quantum yield (in words) [2]: comparatively high quantum yields | pEu [3]: 20.4 | pEu value as compared to DTPA [3]: increased | T0-0 (triplet excited state energy) [4]: 22,320 cm^−1 | η^Eu [6]: 0.395 | knr [6]: 869 s⁻¹ | τrad [6]: 1770 μs | kr [6]: 566 s⁻¹ | τ ([5]; aqueous TRIS pH = 7.4): 697 μs | τ^D ([5]; deuterated solution): 913 μs | τ^D ([5]; deuterated water): 913 μs | τ ([5]; first (longer) component): 697 μs | q ([5]; improved Horrock's equations): 0 | τ (77K) [5, 12]: 748 μs
SMILES: O=C(NCCN(CCNC(=O)c1cccc(=O)n1O)CCOCCOCCN(CCNC(=O)c1cccc(=O)n1O)CCNC(=O)c1cccc(=O)n1O)c1cccc(=O)n1O [Eu(H8-2)]
sensitization process efficiency [6]: 28.4% | η^sens [6]: 0.284

ε [1, 14]: 18,050 M^−1 · cm^−1 | λ^maxabs [1, 14]: 332 nm | øTot [2, 15]: 0.173^b | ϕTot ([2]; aqueous TRIS pH = 7.4, complexes with only one species, listed as [Eu(5LIN^Me-1,2-HOPO)2]): 0.173 | Brightness ([2]; listed as [Eu(5LIN^Me-1,2-HOPO)2]^0): 3400 M⁻¹ cm⁻¹ | Brightness [2, 15]: 3120 M⁻¹ cm⁻¹ | T0-0 (triplet excited state energy) [4, 15]: 22,010 cm^−1 | η^Eu [6, 16]: 0.412 | knr [6, 16]: 807 s⁻¹ | τrad [6, 16]: 1770 μs | kr [6, 16]: 566 s⁻¹ | τ ([5]; aqueous TRIS pH = 7.4, listed as [Eu(5LIN^Me-1,2-HOPO)2]): 728 μs | τ^D ([5]; deuterated solution, listed as [Eu(5LIN^Me-1,2HOPO)2]^0): 1000^b μs | q ([5]; improved Horrock's equations, listed as [Eu(5LIN^Me-1,2HOPO)2]^0): 0.1^b | τ (77K) ([5]; solid matrix at 77K (methanol/ethanol 1/4), listed as [Eu(5LIN^Me-1,2HOPO)2]^0): 860 μs
SMILES: O=C(NCCN(CCCCN(CCNC(=O)c1cccc(=O)n1O)CCNC(=O)c1cccc(=O)n1O)CCNC(=O)c1cccc(=O)n1O)c1cccc(=O)n1O [Eu(5LiN^Me), reference compound]
η^sens [6, 16]: 0.420 | λ [7]: 332 nm | λ ([7]; see reference [47]): 332 nm | ε ([7]; extinction coefficient): 18,750 M^1 cm^−1 | ε ([7]; see reference [47], in M-1·cm-1 (unit assumed)): 18,750 | ϕEu ([8]; quantum yield): 0.17 | ϕTot ([8]; see reference [47]): 0.17 | τ (D2O) ([9]; D2O, first component where two are printed): 1000 μs | τ (H2O) ([9]; H2O, first (longer) component): 728 μs | q ([9]; number of inner sphere water molecules, first species): 0.1 | q ([9]; see reference [47]): 0.1 | τ ([9]; see reference [47]): 728 μs | τ^D ([9]; see reference [47]): 1000 μs | pEu ([10]; competitive batch titration using DTPA in 0.1M TRIS pH = 7.4 and 0.1M KCl): 17.3 | pEu ([10]; see reference [47], DTPA competition, 0.1M TRIS pH = 7.4, 0.1M KCl): 17.3

ε ([1]; TRIS buffer pH = 7.4): 15,200 M^−1 · cm^−1 | λ^maxabs ([1]; TRIS buffer pH = 7.4): 336 nm | øTot [2]: 0.192 | ϕTot [2, 13]: 0.192 | Brightness [2]: 2920 M⁻¹ cm⁻¹ | thermodynamic stability in aqueous solution [3]: high thermodynamic stabilities | T0-0 (triplet excited state energy) [4]: 22,020 cm^−1 | metal centred efficiency [6]: around 50% | η^Eu [6]: 0.528 | knr [6]: 674 s⁻¹ | τrad [6]: 1326 μs | kr [6]: 754 s⁻¹ | τ ([5]; aqueous TRIS pH = 7.4): 700 μs | τ^D ([5]; deuterated solution): 961 μs | q ([5]; improved Horrock's equations): 0.1 | τ (77K) [5, 12]: 819 μs
SMILES: O=C(NCCN(CCNC(=O)c1cccc(=O)n1O)CCOCCOCCOCCOCCN(CCNC(=O)c1cccc(=O)n1O)CCNC(=O)c1cccc(=O)n1O)c1cccc(=O)n1O.[Eu] [[Eu(H(14O4,2)-1,2HOPO)]^0]
η^sens [6]: 0.364
